Patent US11072632B2, “Inhibitors of 17β-HSD1, 17β-HSD3 and 17β-HSD10” (UNIVERSITÉ LAVAL, priority 2011, dated 2021)
Like-named read-outs stand apart in the source and are kept apart here.

How the values were obtained:
17β-HSD3 [1] = target: T1, 17β-HSD3 (Homo sapiens, UniProt P37058); test: Inhibition of 17β-HSD3 in homogenated HEK-293 cells; type: biochemical; conditions: for inhibition at 1 µM: read-out: Homo (%) (1.0 μM), Table 4
T1 construct: expressed in transfected cells; host or cells: HEK-293 (homogenate)
T1 sequence (P37058 1-310): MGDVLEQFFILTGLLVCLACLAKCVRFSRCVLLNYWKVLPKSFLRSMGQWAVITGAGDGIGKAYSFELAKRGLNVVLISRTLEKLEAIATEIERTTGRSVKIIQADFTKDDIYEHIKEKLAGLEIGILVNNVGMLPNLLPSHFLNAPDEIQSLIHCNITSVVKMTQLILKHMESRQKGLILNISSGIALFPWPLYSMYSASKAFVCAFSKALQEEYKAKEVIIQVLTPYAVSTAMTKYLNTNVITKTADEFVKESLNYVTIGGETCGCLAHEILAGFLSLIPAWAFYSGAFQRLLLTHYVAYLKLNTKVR

17β-HSD3 [2] = target: T1, 17β-HSD3; test: Inhibition of 17β-HSD3 in intact HEK-293 cells; type: cell-based; conditions: for inhibition at 0.1 µM: HEK293, 1 h
[3] = Table 3, read-out: Homo (%) (0.01 μM)
[4] = Table 3, read-out: Homo (%) (0.1 μM)
[5] = Table 3, read-out: Intact cells (%) (0.1 μM)
[6] = read-out: Homo (%) (0.01 μM), Table 4
[7] = read-out: Homo (%) (0.1 μM), Table 4
[8] = read-out: Intact cells (%) (0.1 μM), Table 4

In the case of `C[C@]12CC[C@](O)(CN3CCN(Cc4ccc(C(F)(F)F)cc4)CC3)C[C@@H]1CC[C@@H]1[C@@H]2CC[C@]2(C)C(=O)CC[C@@H]12` [Compound 10c, (3α,5α)-3-hydroxy-3-({4-[4-(trifluoromethyl)benzyl]piperazin-1-yl}methyl)androstan-17-one], the inhibition at 0.01 µM (17β-HSD3 [1]; [3]) is reported as 14%, the inhibition at 0.1 µM (17β-HSD3 [1]; [4]) is reported as 81% and the inhibition at 0.1 µM (17β-HSD3 [2]; [5]) is reported as 33%.

In the case of `C[C@]12CC[C@](O)(CN3CCN(Cc4cc(C(F)(F)F)ccc4C(F)(F)F)CC3)C[C@@H]1CC[C@@H]1[C@@H]2CC[C@]2(C)C(=O)CC[C@@H]12` [Compound 10h, (3α,5α)-3-({4-[2,5-bis(trifluoromethyl)benzyl]piperazin-1-yl}methyl)-3-hydroxyandrostan-17-one], the “Homo (%) (0.01 μM)” value (17β-HSD3 [1]; Table 3) is reported as 18%, the “Homo (%) (0.1 μM)” value (17β-HSD3 [1]; Table 3) is reported as 85% and the “Intact cells (%) (0.1 μM)” value (17β-HSD3 [2]; Table 3) is reported as 12%.

For `C[C@]12CC[C@](O)(CN3CCN(Cc4ccc(C(F)(F)F)cc4C(F)(F)F)CC3)C[C@@H]1CC[C@@H]1[C@@H]2CC[C@]2(C)C(=O)CC[C@@H]12` [Compound 10i, (3α,5α)-3-({4-[2,4-bis(trifluoromethyl)benzyl]piperazin-1-yl}methyl)-3-hydroxyandrostan-17-one], the “Homo (%) (0.01 μM)” value (17β-HSD3 [1]; Table 3) was 22%, the “Homo (%) (0.1 μM)” value (17β-HSD3 [1]; Table 3) was 75% and the “Intact cells (%) (0.1 μM)” value (17β-HSD3 [2]; Table 3) was 16%.

In the case of `C[C@]12CC[C@](O)(CN3CCN(Cc4cc(C(F)(F)F)cc(C(F)(F)F)c4)CC3)C[C@@H]1CC[C@@H]1[C@@H]2CC[C@]2(C)C(=O)CC[C@@H]12` [Compound 10j, (3α,5α)-3-({4-[3,5-bis(trifluoromethyl)benzyl]piperazin-1-yl}methyl)-3-hydroxyandrostan-17-one], the “Homo (%) (0.01 μM)” value (17β-HSD3 [1]; Table 3) is reported as 25%, the “Homo (%) (0.1 μM)” value (17β-HSD3 [1]; Table 3) is reported as 83% and the “Intact cells (%) (0.1 μM)” value (17β-HSD3 [2]; Table 3) is reported as 25%.

With `CC1CN(C[C@@]2(O)CC[C@@]3(C)[C@@H](CC[C@@H]4[C@@H]3CC[C@]3(C)C(=O)CC[C@@H]43)C2)C(C)CN1Cc1cc(C(F)(F)F)ccc1C(F)(F)F` (stereo partly drawn) [Compound 11h, (3α,5α)-3-({(2ξ,5ξ)-4-[2,5-bis(trifluoromethyl)benzyl]-2,5-dimethylpiperazin-1-yl}methyl)-3-hydroxyandrostan-17-one] the “Homo (%) (0.01 μM)” value (17β-HSD3 [1]; Table 3) was 16%, the “Homo (%) (0.1 μM)” value (17β-HSD3 [1]; Table 3) was 71% and the “Intact cells (%) (0.1 μM)” value (17β-HSD3 [2]; Table 3) was 23%.

With `CC1CN(CC2(O)CCC3(C)C(CCC4C5CCC(=O)C5(C)CCC43)C2)C(C)CN1Cc1ccc(C(F)(F)F)cc1C(F)(F)F` (stereo not drawn) [Compound 11i, (3α,5α)-3-({(2ξ,5ξ)-4-[2,4-bis(trifluoromethyl)benzyl]-2,5-dimethylpiperazin-1-yl}methyl)-3-hydroxyandrostan-17-one] the “Homo (%) (0.01 μM)” value (17β-HSD3 [1]; Table 3) was 15%, the “Homo (%) (0.1 μM)” value (17β-HSD3 [1]; Table 3) was 71% and the “Intact cells (%) (0.1 μM)” value (17β-HSD3 [2]; Table 3) was 21%.

In the case of `CC1CN(C[C@@]2(O)CC[C@@]3(C)[C@@H](CC[C@@H]4[C@@H]3CC[C@]3(C)C(=O)CC[C@@H]43)C2)C(C)CN1Cc1cc(C(F)(F)F)cc(C(F)(F)F)c1` (stereo partly drawn) [Compound 11j, (3α,5α)-3-({(2ξ,5ξ)-4-[3,5-bis(trifluoromethyl)benzyl]-2,5-dimethylpiperazin-1-yl}methyl)-3-hydroxyandrostan-17-one], the “Homo (%) (0.01 μM)” value (17β-HSD3 [1]; Table 3) is reported as 25%, the “Homo (%) (0.1 μM)” value (17β-HSD3 [1]; Table 3) is reported as 74% and the “Intact cells (%) (0.1 μM)” value (17β-HSD3 [2]; Table 3) is reported as 16%.

For `C[C@]12CC[C@](O)(CN3CCN(C(=O)c4ccccc4)CC3)C[C@@H]1CC[C@@H]1[C@@H]2CC[C@]2(C)C(=O)CC[C@@H]12` [Compound 12a, (3α,5α)-3-hydroxy-3-{[4-(phenylcarbonyl)piperazin-1-yl]methyl}androstan-17-one], the inhibition at 0.01 µM (17β-HSD3 [1]; read-out: Homo (%) (0.01 μM), Table 3) was 17%, the inhibition at 0.1 µM (17β-HSD3 [1]; read-out: Homo (%) (0.1 μM), Table 3) was 76% and the inhibition at 0.1 µM (17β-HSD3 [2]; read-out: Intact cells (%) (0.1 μM), Table 3) was 50%.

For `C[C@]12CC[C@](O)(CN3CCN(C(=O)C4CCCCC4)CC3)C[C@@H]1CC[C@@H]1[C@@H]2CC[C@]2(C)C(=O)CC[C@@H]12` [Compound 12b, (3α,5α)-3-{[4-(cyclohexylcarbonyl)piperazin-1-yl]methyl}-3-hydroxyandrostan-17-one], the “Homo (%) (0.01 μM)” value (17β-HSD3 [1]; Table 3) was 19%, the “Homo (%) (0.1 μM)” value (17β-HSD3 [1]; Table 3) was 75% and the “Intact cells (%), tested at 1 μM” value (17β-HSD3 [2]; Table 3, footnote b, 1 μM) was “N/A (70)^b %”.

With `C[C@]12CC[C@](O)(CN3CCN(C(=O)c4cccc(C(F)(F)F)c4)CC3)C[C@@H]1CC[C@@H]1[C@@H]2CC[C@]2(C)C(=O)CC[C@@H]12` [Compound 12d, (3α,5α)-3-hydroxy-3-[(4-{[3-(trifluoromethyl)phenyl]carbonyl}piperazin-1-yl)methyl]androstan-17-one] the inhibition at 0.01 µM (17β-HSD3 [1]; [3]) was 10%, the inhibition at 0.1 µM (17β-HSD3 [1]; [4]) was 92% and the inhibition at 0.1 µM (17β-HSD3 [2]; [5]) was 91%.

`C[C@]12CC[C@](O)(CN3CCN(C(=O)c4ccc(C(F)(F)F)cc4)CC3)C[C@@H]1CC[C@@H]1[C@@H]2CC[C@]2(C)C(=O)CC[C@@H]12` [Compound 12e, (3α,5α)-3-hydroxy-3-[(4-{[4-(trifluoromethyl)phenyl]carbonyl}piperazin-1-yl)methyl]androstan-17-one] was tested, and the inhibition at 0.01 µM (17β-HSD3 [1]; [3]) was 22%, the inhibition at 0.1 µM (17β-HSD3 [1]; [4]) was 84% and the inhibition at 0.1 µM (17β-HSD3 [2]; [5]) was 56%.

For `CC1CN(C(=O)c2ccccc2)C(C)CN1C[C@@]1(O)CC[C@@]2(C)[C@@H](CC[C@@H]3[C@@H]2CC[C@]2(C)C(=O)CC[C@@H]32)C1` (stereo partly drawn) [Compound 13a, (3α,5α)-3-{[(2ξ,5ξ)-2,5-dimethyl-4-(phenylcarbonyl)piperazin-1-yl]methyl}-3-hydroxyandrostan-17-one], the “Homo (%) (0.01 μM)” value (17β-HSD3 [1]; Table 3) was 24%, the “Homo (%) (0.1 μM)” value (17β-HSD3 [1]; Table 3) was 87% and the “Intact cells (%) (0.1 μM)” value (17β-HSD3 [2]; Table 3) was 78%.

With `CC1CN(C(=O)C2CCCCC2)C(C)CN1C[C@@]1(O)CC[C@@]2(C)[C@@H](CC[C@@H]3[C@@H]2CC[C@]2(C)C(=O)CC[C@@H]32)C1` (stereo partly drawn) [Compound 13b, (3α,5α)-3-{[(2ξ,5ξ)-4-(cyclohexylcarbonyl)-2,5-dimethylpiperazin-1-yl]methyl}-3-hydroxyandrostan-17-one] the “Homo (%) (0.01 μM)” value (17β-HSD3 [1]; Table 3) was 24%, the “Homo (%) (0.1 μM)” value (17β-HSD3 [1]; Table 3) was 90% and the “Intact cells (%) (0.1 μM)” value (17β-HSD3 [2]; Table 3) was 77%.

For `CC1CN(C(=O)c2cccc(C(F)(F)F)c2)C(C)CN1CC1(O)CCC2(C)C(CCC3C4CCC(=O)C4(C)CCC32)C1` (stereo not drawn) [Compound 13c, (3α,5α)-3-{[(2ξ,5ξ)-2,5-dimethyl-4-{[3-(trifluoromethyl)phenyl]carbonyl}piperazin-1-yl]methyl}-3-hydroxyandrostan-17-one], the “Homo (%) (0.01 μM)” value (17β-HSD3 [1]; Table 3) was 28%, the “Homo (%) (0.1 μM)” value (17β-HSD3 [1]; Table 3) was 89% and the “Intact cells (%) (0.1 μM)” value (17β-HSD3 [2]; Table 3) was 70%.

`Cc1ccc(CN2C[C@]3(CC[C@@]4(C)[C@@H](CC[C@@H]5[C@@H]4CC[C@]4(C)C(=O)CC[C@@H]54)C3)OC2=O)cc1` [Compound 17b, (3R,5S,8R,9S,10S,13S,14S)-10,13-dimethyl-3′-(4-methylbenzyl)tetrahydrodecahydro-2′H-spiro[cyclopenta[α]phenanthrene-3,5′-[1,3]oxazolidine]-2′,17(2H)-dione] was tested, and the inhibition at 0.01 µM (17β-HSD3 [1]; [6]) was 17%, the inhibition at 0.1 µM (17β-HSD3 [1]; [7]) was 81% and the inhibition at 1 µM (17β-HSD3 [1]) was 93%. The inhibition at 0.1 µM (17β-HSD3 [2]; [8]) was 38%.

Molecule `COc1ccc(CN2C[C@]3(CC[C@@]4(C)[C@@H](CC[C@@H]5[C@@H]4CC[C@]4(C)C(=O)CC[C@@H]54)C3)OC2=O)cc1` [Compound 17c, (3R,5S,8R,9S,10S,13S,14S)-3′-(4-methoxybenzyl)-10,13-dimethyltetradecahydro-2′H-spiro[cyclopenta[α]phenanthrene-3,5′-[1,3]oxazolidine]-2′,17(2H)-dione] has an inhibition at 0.01 µM (17β-HSD3 [1]; [6]) of 5%, an inhibition at 0.1 µM (17β-HSD3 [1]; [7]) of 84% and an inhibition at 1 µM (17β-HSD3 [1]) of 93%. It also gave an inhibition at 0.1 µM (17β-HSD3 [2]; [8]) of 43%.

`C[C@]12CC[C@@]3(C[C@@H]1CC[C@@H]1[C@@H]2CC[C@]2(C)C(=O)CC[C@@H]12)CN(Cc1ccc(C(F)(F)F)cc1)C(=O)O3` [Compound 17d, (3R,5S,8R,9S,10S,13S,14S)-10,13-dimethyl-3′-[4-(trifluoromethyl)benzyl]tetradecahydro-2′H-spiro[cyclopenta[α]phenanthrene-3,5′-[1,3]oxazolidine]-2′,17(2H)-dione] showed an inhibition at 0.01 µM (17β-HSD3 [1]; [6]) of 25%, an inhibition at 0.1 µM (17β-HSD3 [1]; [7]) of 80% and an inhibition at 0.1 µM (17β-HSD3 [2]; [8]) of 43%.

`C[C@]12CC[C@@]3(C[C@@H]1CC[C@@H]1[C@@H]2CC[C@]2(C)C(=O)CC[C@@H]12)CN(Cc1ccc(C(F)(F)F)nc1)C(=O)O3` [Compound 17e] showed an inhibition at 0.01 µM (17β-HSD3 [1]; [6]) of 3%, an inhibition at 0.1 µM (17β-HSD3 [1]; [7]) of 65% and an inhibition at 0.1 µM (17β-HSD3 [2]; [8]) of 36%.

`C[C@]12CC[C@@]3(C[C@@H]1CC[C@@H]1[C@@H]2CC[C@]2(C)C(=O)CC[C@@H]12)CN(Cc1ccccc1C(F)(F)F)C(=O)O3` [Compound 17f, (3R,5S,8R,9S,10S,13S,14S)-10,13-dimethyl-3′-[2-(trifluoromethyl)benzyl]tetradecahydro-2′H-spiro[cyclopenta[α]phenanthrene-3,5′-[1,3]oxazolidine]-2′,17(2H)-dione] was tested, and the inhibition at 0.01 µM (17β-HSD3 [1]; [6]) was 17%, the inhibition at 0.1 µM (17β-HSD3 [1]; [7]) was 81% and the inhibition at 0.1 µM (17β-HSD3 [2]; [8]) was 35%.
